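These data come from cells grown in 96-well plates and exposed to compound for 48 hours at five concentrations. Definition used: TGI = concentration required for complete inhibition of growth.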
Tests used:
Test in all cases: NCI tumour cell line growth inhibition, 48 h
[1] = test system: KM12 colon
[2] = test system: HCC-2998 colon
[3] = test system: OVCAR-3 ovarian
[4] = test system: T-47D breast
[5] = test system: MDA-N
[6] = test system: SNB-75 CNS
[7] = test system: U251 CNS
[8] = test system: UO-31 renal
[9] = test system: SF-268 CNS
[10] = test system: HCT-116 colon
[11] = test system: OVCAR-4 ovarian
[12] = test system: SK-MEL-5 melanoma
[13] = test system: NCI-H226 lung
[14] = test system: SN12C renal
[15] = test system: IGROV1 ovarian
[16] = test system: TK-10 renal
[17] = test system: PC-3 prostate
[18] = test system: UACC-62 melanoma
[19] = test system: 786-0 renal
[20] = test system: CAKI-1 renal
[21] = test system: SNB-19 CNS
[22] = test system: MCF7 breast
[23] = test system: NCI-H522 lung
[24] = test system: MOLT-4 leukemia
[25] = test system: UACC-257 melanoma
[26] = test system: NCI/ADR-RES ovarian
[27] = test system: EKVX NSCLC
[28] = test system: NCI-H23 lung
[29] = test system: ACHN renal
[30] = test system: CCRF-CEM leukemia
[31] = test system: MDA-MB-231 breast
[32] = test system: SK-MEL-28 melanoma
[33] = test system: DU-145 prostate
[34] = test system: HS 578T breast
[35] = test system: A549 NSCLC
[36] = test system: OVCAR-8 ovarian
[37] = test system: A498 renal
[38] = test system: COLO 205 colon
[39] = test system: OVCAR-5 ovarian
[40] = test system: NCI-H460 lung
[41] = test system: HCT-15 colon
[42] = test system: M14 melanoma
[43] = test system: HL-60(TB) leukemia
[44] = test system: SK-MEL-2 melanoma
[45] = test system: SW-620 colon
[46] = test system: BT-549 breast
[47] = test system: RPMI-8226 leukemia
[48] = test system: HOP-92 NSCLC
[49] = test system: SF-539 CNS
[50] = test system: LOX IMVI melanoma
[51] = test system: HT29 colon
[52] = test system: MALME-3M melanoma
[53] = test system: SK-OV-3 ovarian
[54] = test system: SF-295 CNS
[55] = test system: MDA-MB-435
[56] = test system: HOP-62 NSCLC
[57] = test system: K-562 leukemia
[58] = test system: SR leukemia
[59] = test system: RXF 393 renal

C/C=C1/CN2CCC34C(=C(C(=O)OC)C1CC23)Nc1ccc(O)cc14 (centres undefined)
TGI [1]: > 100 µM | TGI [2]: > 100 µM | TGI [3]: > 100 µM | TGI [4]: > 100 µM | TGI [5]: > 100 µM | TGI [6]: > 100 µM | TGI [7]: > 100 µM | TGI [8]: > 100 µM | TGI [9]: > 100 µM | TGI [10]: > 100 µM | TGI [11]: > 100 µM | TGI [12]: > 100 µM | TGI [13]: > 100 µM | TGI [14]: > 100 µM | TGI [15]: > 100 µM | TGI [16]: > 100 µM | TGI [17]: > 100 µM | TGI [18]: > 100 µM | TGI [19]: > 100 µM | TGI [20]: > 100 µM | TGI [21]: > 100 µM | TGI [22]: > 100 µM | TGI [23]: > 100 µM | TGI [24]: > 100 µM | TGI [25]: > 100 µM | TGI [26]: > 100 µM | TGI [27]: > 100 µM | TGI [28]: > 100 µM | TGI [29]: > 100 µM | TGI [30]: > 100 µM | TGI [31]: > 100 µM | TGI [32]: > 100 µM | TGI [33]: > 100 µM | TGI [34]: > 100 µM | TGI [35]: > 100 µM | TGI [36]: > 100 µM | TGI [37]: > 100 µM | TGI [38]: > 100 µM | TGI [39]: > 100 µM | TGI [40]: > 100 µM | TGI [41]: > 100 µM | TGI [42]: > 100 µM | TGI [43]: > 100 µM | TGI [44]: > 100 µM | TGI [45]: > 100 µM | TGI [46]: > 100 µM | TGI [47]: > 100 µM | TGI [48]: > 100 µM | TGI [49]: > 100 µM | TGI [50]: > 100 µM | TGI [51]: > 100 µM | TGI [52]: > 100 µM | TGI [53]: > 100 µM | TGI [54]: > 100 µM | TGI [55]: > 100 µM

C=C1CCC2CC1C(C(=O)c1c[nH]c3ccccc13)=NC2(C)C (centres undefined)
TGI [1]: > 100 µM | TGI [2]: > 100 µM | TGI [3]: > 100 µM | TGI [4]: > 100 µM | TGI [5]: > 100 µM | TGI [6]: > 100 µM | TGI [7]: > 100 µM | TGI [8]: > 100 µM | TGI [9]: > 100 µM | TGI [56]: > 100 µM | TGI [10]: > 100 µM | TGI [11]: > 100 µM | TGI [12]: > 100 µM | TGI [13]: > 100 µM | TGI [14]: > 100 µM | TGI [15]: > 100 µM | TGI [17]: > 100 µM | TGI [18]: > 100 µM | TGI [19]: > 100 µM | TGI [20]: > 100 µM | TGI [21]: > 100 µM | TGI [22]: > 100 µM | TGI [23]: > 100 µM | TGI [24]: > 100 µM | TGI [25]: > 100 µM | TGI [26]: > 100 µM | TGI [27]: > 100 µM | TGI [28]: > 100 µM | TGI [29]: > 100 µM | TGI [30]: > 100 µM | TGI [31]: > 100 µM | TGI [32]: > 100 µM | TGI [33]: > 100 µM | TGI [34]: > 100 µM | TGI [57]: > 100 µM | TGI [35]: > 100 µM | TGI [36]: > 100 µM | TGI [37]: > 100 µM | TGI [38]: > 100 µM | TGI [39]: > 100 µM | TGI [40]: > 100 µM | TGI [41]: > 100 µM | TGI [42]: > 100 µM | TGI [43]: > 100 µM | TGI [45]: > 100 µM | TGI [46]: > 100 µM | TGI [58]: > 100 µM | TGI [47]: > 100 µM | TGI [49]: > 100 µM | TGI [50]: > 100 µM | TGI [51]: > 100 µM | TGI [52]: > 100 µM | TGI [53]: > 100 µM | TGI [55]: > 100 µM

CC[C@H](C)[C@H](NC(=O)N(CCC#N)CCN(CCN(C(=O)N[C@@H](Cc1ccccc1)C(=O)OC)c1ccccc1)C(=O)N[C@H](C(=O)OC)C(C)C)C(=O)OC
TGI [1]: 39.7 µM | TGI [2]: 39.5 µM | TGI [3]: 39.7 µM | TGI [4]: 47.2 µM | TGI [59]: 37.8 µM | TGI [5]: 31.7 µM | TGI [6]: 43.1 µM | TGI [7]: 36.1 µM | TGI [8]: 33.8 µM | TGI [9]: 44.4 µM | TGI [56]: 44.9 µM | TGI [10]: 36 µM | TGI [11]: 62 µM | TGI [12]: 38.4 µM | TGI [13]: 48.8 µM | TGI [14]: 54.5 µM | TGI [15]: 45.9 µM | TGI [16]: 38.5 µM | TGI [17]: 47.7 µM | TGI [18]: 28.6 µM | TGI [19]: 17.1 µM | TGI [20]: 35.3 µM | TGI [21]: 35.9 µM | TGI [22]: 74.6 µM | TGI [24]: 24.7 µM | TGI [25]: 29 µM | TGI [26]: 81.7 µM | TGI [27]: 69.2 µM | TGI [28]: 40.1 µM | TGI [29]: 26.7 µM | TGI [30]: 56.1 µM | TGI [31]: 47.1 µM | TGI [32]: 29.7 µM | TGI [33]: 41.2 µM | TGI [34]: 86.6 µM | TGI [35]: > 100 µM | TGI [36]: 65.4 µM | TGI [37]: 36.8 µM | TGI [38]: 52.6 µM | TGI [39]: 57.3 µM | TGI [41]: 51.6 µM | TGI [42]: 44.8 µM | TGI [43]: 4.24 µM | TGI [44]: 43.4 µM | TGI [45]: 64.8 µM | TGI [46]: 44.7 µM | TGI [47]: 29.1 µM | TGI [48]: 23.3 µM | TGI [49]: 49.1 µM | TGI [50]: 37.4 µM | TGI [52]: 35 µM | TGI [53]: 41.2 µM | TGI [54]: 37.9 µM | TGI [55]: 36.3 µM

CC(=O)N1C(C(=O)NN2CCOCC2)CSC1c1ccccc1 (centres undefined)
TGI [1]: > 100 µM | TGI [2]: > 100 µM | TGI [3]: > 100 µM | TGI [4]: > 100 µM | TGI [5]: > 100 µM | TGI [6]: > 100 µM | TGI [7]: > 100 µM | TGI [8]: > 100 µM | TGI [9]: > 100 µM | TGI [56]: > 100 µM | TGI [10]: > 100 µM | TGI [11]: > 100 µM | TGI [12]: > 100 µM | TGI [13]: > 100 µM | TGI [14]: > 100 µM | TGI [15]: > 100 µM | TGI [16]: > 100 µM | TGI [17]: > 100 µM | TGI [18]: > 100 µM | TGI [19]: > 100 µM | TGI [20]: > 100 µM | TGI [21]: > 100 µM | TGI [22]: > 100 µM | TGI [23]: > 100 µM | TGI [24]: > 100 µM | TGI [25]: > 100 µM | TGI [26]: > 100 µM | TGI [27]: > 100 µM | TGI [28]: > 100 µM | TGI [29]: > 100 µM | TGI [30]: > 100 µM | TGI [31]: > 100 µM | TGI [33]: > 100 µM | TGI [34]: > 100 µM | TGI [57]: > 100 µM | TGI [35]: > 100 µM | TGI [36]: > 100 µM | TGI [37]: > 100 µM | TGI [38]: > 100 µM | TGI [39]: > 100 µM | TGI [40]: > 100 µM | TGI [41]: > 100 µM | TGI [42]: > 100 µM | TGI [44]: > 100 µM | TGI [45]: > 100 µM | TGI [46]: > 100 µM | TGI [58]: > 100 µM | TGI [47]: > 100 µM | TGI [48]: > 100 µM | TGI [49]: > 100 µM | TGI [50]: > 100 µM | TGI [51]: > 100 µM | TGI [52]: > 100 µM | TGI [53]: > 100 µM | TGI [54]: > 100 µM | TGI [55]: > 100 µM
